This note sets out measurements from ChEMBL document CHEMBL1201862, “PubChem BioAssay data set” (2004).

Activity calls are given as the source filed them.

For one assay, the target named is T1, Protein skinhead-1 (Caenorhabditis elegans, UniProt P34707).
T1 sequence (P34707 whole entry): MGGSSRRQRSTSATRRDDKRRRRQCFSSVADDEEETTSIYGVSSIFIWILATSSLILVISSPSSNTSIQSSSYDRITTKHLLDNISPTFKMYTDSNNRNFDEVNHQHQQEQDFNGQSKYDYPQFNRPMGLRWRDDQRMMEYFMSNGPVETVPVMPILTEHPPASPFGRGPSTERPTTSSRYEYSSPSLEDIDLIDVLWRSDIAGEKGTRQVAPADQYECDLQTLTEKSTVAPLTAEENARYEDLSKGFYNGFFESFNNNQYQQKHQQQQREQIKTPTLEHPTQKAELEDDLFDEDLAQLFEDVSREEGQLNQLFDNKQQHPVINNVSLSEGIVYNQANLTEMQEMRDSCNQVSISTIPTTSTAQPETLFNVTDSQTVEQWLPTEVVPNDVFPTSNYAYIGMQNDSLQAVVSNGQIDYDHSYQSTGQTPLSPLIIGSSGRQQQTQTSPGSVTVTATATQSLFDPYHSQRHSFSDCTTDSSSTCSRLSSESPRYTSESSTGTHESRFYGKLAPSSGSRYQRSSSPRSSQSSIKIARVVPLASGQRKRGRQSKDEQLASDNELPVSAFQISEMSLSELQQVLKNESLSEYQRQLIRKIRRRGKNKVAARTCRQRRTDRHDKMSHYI
Format: functional.

Assay [1] addresses T2, Carboxy-terminal domain RNA polymerase II polypeptide A small phosphatase 1 (Homo sapiens, UniProt Q9GZU7).
T2 sequence (Q9GZU7 whole entry): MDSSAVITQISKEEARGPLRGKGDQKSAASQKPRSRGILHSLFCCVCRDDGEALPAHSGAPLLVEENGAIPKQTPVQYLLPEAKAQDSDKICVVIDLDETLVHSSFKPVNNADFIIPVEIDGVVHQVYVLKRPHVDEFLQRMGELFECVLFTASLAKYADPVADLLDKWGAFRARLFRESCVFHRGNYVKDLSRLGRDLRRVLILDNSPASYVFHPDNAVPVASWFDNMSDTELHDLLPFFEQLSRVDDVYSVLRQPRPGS
The experiment in a line: inhibitors of CTDSP1, concentration-response testing, biochemical assay, absorbance-based, actives from ultra-high-throughput screening (AID 540297). In kind it is functional.

Assay [2] addresses T3, High affinity choline transporter 1 (Homo sapiens, UniProt Q9GZV3).
T3 sequence (Q9GZV3 whole entry): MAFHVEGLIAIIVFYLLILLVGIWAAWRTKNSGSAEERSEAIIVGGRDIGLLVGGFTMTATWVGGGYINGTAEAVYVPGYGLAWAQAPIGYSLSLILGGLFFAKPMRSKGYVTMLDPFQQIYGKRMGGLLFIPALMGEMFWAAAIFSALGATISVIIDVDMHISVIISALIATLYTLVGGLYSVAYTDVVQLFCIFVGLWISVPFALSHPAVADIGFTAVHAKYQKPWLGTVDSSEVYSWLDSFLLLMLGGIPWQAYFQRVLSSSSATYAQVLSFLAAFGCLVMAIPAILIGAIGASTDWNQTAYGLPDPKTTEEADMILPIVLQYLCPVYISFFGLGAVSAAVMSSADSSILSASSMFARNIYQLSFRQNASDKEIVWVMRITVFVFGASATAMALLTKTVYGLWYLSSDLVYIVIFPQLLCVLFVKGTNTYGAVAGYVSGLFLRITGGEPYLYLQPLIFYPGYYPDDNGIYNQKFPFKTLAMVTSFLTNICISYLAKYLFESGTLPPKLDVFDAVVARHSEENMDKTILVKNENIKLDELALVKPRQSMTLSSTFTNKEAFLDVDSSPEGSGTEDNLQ
Nature of the assay: CHT inhibitors, dose response, cell-based, 5-point CRC, membrane potential dye (AID 504840). In kind it is functional.

The target in assay [3] is T4, Fatty acid synthase (Homo sapiens, UniProt P49327). The experiment in a line: FAS thioesterase domain inhibitors, dose response, biochemical, kinetic fluorescence intensity (AID 624326).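 Note: rate of fluorescence rise from hydrolysis of a fluorogenic O-methyl fluorescein ester substrate.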 Format: functional.
T4 sequence (P49327 whole entry, the tested form may be a part): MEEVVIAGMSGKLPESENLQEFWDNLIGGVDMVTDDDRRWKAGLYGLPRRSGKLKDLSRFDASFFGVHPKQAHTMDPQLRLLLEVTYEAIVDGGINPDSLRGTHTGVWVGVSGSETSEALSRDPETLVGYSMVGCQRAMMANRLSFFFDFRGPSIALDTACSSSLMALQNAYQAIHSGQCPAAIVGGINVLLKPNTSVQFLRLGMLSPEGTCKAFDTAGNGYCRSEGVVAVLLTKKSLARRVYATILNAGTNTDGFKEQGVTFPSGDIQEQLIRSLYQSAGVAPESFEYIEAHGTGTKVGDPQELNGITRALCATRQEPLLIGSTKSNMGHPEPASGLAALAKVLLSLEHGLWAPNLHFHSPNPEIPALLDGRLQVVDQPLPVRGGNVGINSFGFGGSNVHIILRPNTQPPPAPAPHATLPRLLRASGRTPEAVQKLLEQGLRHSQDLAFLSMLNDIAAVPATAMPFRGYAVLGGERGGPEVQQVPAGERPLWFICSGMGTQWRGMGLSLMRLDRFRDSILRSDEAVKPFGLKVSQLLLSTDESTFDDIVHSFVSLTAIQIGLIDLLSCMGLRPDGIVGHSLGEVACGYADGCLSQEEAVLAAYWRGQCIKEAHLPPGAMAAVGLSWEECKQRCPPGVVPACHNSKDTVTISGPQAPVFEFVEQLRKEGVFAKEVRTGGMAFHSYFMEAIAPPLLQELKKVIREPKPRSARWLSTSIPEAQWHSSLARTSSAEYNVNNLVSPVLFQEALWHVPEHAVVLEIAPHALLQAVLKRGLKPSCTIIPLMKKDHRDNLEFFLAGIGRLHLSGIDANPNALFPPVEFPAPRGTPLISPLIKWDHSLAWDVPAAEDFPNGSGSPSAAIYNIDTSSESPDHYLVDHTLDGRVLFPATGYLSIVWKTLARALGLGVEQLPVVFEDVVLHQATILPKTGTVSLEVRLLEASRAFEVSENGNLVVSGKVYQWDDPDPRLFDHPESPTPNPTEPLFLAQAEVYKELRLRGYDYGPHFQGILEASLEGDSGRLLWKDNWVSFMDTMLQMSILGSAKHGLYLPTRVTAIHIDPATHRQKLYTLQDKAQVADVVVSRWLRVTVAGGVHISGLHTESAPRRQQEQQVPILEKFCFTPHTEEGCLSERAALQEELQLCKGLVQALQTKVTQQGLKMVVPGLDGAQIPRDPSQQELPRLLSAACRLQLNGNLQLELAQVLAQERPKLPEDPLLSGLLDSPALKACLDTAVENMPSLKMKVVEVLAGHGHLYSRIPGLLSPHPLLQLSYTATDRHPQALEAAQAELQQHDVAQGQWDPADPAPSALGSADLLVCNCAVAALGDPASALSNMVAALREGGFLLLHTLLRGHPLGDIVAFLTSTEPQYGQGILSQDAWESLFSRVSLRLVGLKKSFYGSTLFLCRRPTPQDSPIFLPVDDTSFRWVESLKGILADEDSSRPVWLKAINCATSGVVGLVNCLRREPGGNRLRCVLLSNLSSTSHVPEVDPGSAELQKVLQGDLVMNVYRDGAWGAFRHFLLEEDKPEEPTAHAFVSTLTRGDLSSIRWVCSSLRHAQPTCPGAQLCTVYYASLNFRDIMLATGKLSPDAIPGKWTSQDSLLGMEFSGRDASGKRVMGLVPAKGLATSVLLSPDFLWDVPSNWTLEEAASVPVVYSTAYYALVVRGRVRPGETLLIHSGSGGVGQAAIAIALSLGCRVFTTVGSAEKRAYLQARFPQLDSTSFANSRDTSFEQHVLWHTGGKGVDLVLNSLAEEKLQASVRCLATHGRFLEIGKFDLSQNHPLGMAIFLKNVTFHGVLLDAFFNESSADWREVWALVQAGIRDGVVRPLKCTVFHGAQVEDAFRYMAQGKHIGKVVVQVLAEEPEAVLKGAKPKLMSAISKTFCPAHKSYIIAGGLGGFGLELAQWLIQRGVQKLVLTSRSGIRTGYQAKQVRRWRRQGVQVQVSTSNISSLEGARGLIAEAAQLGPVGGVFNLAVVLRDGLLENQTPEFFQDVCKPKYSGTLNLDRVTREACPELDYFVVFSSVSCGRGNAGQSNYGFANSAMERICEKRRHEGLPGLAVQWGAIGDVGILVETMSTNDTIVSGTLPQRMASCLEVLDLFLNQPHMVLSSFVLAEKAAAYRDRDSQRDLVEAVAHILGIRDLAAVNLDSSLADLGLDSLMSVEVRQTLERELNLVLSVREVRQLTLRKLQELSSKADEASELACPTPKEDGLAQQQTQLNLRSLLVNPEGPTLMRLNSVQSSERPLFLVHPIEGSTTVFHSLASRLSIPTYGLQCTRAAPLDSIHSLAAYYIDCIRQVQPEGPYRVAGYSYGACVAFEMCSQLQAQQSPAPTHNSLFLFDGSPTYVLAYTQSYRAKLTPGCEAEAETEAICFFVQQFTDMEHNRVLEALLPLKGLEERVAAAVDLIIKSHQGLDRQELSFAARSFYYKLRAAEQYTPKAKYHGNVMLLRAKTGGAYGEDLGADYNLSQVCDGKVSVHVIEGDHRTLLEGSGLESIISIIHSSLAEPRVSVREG
The target in assay [4] is T4, Fatty acid synthase. Nature of the assay: FAS thioesterase domain inhibitors, dose response, biochemical, endpoint fluorescence intensity, uHTS hits (AID 624327).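 Note: fluorescence from hydrolysis of an O-methyl fluorescein acyl ester substrate by the enzyme.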 In kind it is functional.
In assay [5] the target is T5, Heat shock factor protein 1 (Mus musculus, UniProt P38532).
T5 sequence (P38532 whole entry): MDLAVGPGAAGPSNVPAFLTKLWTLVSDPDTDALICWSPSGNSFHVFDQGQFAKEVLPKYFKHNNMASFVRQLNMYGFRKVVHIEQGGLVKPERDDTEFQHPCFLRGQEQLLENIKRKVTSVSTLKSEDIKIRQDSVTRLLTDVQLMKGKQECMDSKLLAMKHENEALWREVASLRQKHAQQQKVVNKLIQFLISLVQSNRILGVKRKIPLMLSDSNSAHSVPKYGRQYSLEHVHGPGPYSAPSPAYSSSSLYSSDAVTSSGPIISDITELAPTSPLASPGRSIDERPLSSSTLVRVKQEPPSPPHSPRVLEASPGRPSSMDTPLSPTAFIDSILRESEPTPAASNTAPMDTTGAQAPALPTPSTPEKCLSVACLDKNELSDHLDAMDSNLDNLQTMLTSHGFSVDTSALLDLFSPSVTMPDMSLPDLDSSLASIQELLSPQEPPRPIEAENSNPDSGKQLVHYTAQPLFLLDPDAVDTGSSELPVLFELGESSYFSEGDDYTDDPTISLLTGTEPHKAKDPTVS
The experiment in a line: HSF1 potentiators in luciferase reporter cells, confirmation, cell-based, NIH3T3, luminescence, dose retest (AID 435004).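 Note: stress induced by proteasome inhibitor MG132 added 30 min after compound; luciferase reporter driven by HSF1 response element in NIH3T3 cells; actives raise luminescence as potentiators of the MG132 stress response.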 In kind it is functional.

For assay [6], the target named is Heat shock protein HSP 90-alpha (Homo sapiens, UniProt P07900). Format: functional, organism-based.
Assay [7] has as its target T6, Corticotropin-releasing factor receptor 2/Corticotropin-releasing factor-binding protein (Homo sapiens, UniProt P24387+Q13324).
T6 sequence (Q13324 whole entry): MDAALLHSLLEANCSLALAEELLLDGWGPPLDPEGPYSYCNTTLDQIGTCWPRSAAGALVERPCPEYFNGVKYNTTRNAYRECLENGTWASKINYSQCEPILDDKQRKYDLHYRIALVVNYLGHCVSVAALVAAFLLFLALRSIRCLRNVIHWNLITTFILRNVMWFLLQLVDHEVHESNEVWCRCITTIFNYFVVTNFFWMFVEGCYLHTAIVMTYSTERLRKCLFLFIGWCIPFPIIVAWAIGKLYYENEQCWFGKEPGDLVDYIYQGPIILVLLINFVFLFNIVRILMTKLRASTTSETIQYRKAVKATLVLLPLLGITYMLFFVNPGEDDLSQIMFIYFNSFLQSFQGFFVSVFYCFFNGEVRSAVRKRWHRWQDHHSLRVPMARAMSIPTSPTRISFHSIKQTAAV
T6 sequence (P24387 whole entry): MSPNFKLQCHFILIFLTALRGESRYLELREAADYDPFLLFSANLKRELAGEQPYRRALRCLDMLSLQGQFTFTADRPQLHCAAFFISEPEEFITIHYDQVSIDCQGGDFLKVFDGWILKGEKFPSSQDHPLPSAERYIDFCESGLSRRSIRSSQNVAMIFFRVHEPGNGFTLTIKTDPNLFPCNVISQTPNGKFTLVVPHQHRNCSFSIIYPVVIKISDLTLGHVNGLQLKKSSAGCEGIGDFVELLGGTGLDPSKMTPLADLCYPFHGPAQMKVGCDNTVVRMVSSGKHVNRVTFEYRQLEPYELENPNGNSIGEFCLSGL
Nature of the assay: activators of CRF receptor 2 with binding protein – uHTS hits, confirmation (AID 602473). The settings on record: read-out: EC50_Mean. Format: functional.

The target of assay [8] is Voltage-dependent T-type calcium channel subunit alpha-1H (Homo sapiens, UniProt O95180). Format: functional.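 Note: channel activity triggered by adding a high calcium stimulation buffer.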
Sequence of Voltage-dependent T-type calcium channel subunit alpha-1H (O95180 whole entry): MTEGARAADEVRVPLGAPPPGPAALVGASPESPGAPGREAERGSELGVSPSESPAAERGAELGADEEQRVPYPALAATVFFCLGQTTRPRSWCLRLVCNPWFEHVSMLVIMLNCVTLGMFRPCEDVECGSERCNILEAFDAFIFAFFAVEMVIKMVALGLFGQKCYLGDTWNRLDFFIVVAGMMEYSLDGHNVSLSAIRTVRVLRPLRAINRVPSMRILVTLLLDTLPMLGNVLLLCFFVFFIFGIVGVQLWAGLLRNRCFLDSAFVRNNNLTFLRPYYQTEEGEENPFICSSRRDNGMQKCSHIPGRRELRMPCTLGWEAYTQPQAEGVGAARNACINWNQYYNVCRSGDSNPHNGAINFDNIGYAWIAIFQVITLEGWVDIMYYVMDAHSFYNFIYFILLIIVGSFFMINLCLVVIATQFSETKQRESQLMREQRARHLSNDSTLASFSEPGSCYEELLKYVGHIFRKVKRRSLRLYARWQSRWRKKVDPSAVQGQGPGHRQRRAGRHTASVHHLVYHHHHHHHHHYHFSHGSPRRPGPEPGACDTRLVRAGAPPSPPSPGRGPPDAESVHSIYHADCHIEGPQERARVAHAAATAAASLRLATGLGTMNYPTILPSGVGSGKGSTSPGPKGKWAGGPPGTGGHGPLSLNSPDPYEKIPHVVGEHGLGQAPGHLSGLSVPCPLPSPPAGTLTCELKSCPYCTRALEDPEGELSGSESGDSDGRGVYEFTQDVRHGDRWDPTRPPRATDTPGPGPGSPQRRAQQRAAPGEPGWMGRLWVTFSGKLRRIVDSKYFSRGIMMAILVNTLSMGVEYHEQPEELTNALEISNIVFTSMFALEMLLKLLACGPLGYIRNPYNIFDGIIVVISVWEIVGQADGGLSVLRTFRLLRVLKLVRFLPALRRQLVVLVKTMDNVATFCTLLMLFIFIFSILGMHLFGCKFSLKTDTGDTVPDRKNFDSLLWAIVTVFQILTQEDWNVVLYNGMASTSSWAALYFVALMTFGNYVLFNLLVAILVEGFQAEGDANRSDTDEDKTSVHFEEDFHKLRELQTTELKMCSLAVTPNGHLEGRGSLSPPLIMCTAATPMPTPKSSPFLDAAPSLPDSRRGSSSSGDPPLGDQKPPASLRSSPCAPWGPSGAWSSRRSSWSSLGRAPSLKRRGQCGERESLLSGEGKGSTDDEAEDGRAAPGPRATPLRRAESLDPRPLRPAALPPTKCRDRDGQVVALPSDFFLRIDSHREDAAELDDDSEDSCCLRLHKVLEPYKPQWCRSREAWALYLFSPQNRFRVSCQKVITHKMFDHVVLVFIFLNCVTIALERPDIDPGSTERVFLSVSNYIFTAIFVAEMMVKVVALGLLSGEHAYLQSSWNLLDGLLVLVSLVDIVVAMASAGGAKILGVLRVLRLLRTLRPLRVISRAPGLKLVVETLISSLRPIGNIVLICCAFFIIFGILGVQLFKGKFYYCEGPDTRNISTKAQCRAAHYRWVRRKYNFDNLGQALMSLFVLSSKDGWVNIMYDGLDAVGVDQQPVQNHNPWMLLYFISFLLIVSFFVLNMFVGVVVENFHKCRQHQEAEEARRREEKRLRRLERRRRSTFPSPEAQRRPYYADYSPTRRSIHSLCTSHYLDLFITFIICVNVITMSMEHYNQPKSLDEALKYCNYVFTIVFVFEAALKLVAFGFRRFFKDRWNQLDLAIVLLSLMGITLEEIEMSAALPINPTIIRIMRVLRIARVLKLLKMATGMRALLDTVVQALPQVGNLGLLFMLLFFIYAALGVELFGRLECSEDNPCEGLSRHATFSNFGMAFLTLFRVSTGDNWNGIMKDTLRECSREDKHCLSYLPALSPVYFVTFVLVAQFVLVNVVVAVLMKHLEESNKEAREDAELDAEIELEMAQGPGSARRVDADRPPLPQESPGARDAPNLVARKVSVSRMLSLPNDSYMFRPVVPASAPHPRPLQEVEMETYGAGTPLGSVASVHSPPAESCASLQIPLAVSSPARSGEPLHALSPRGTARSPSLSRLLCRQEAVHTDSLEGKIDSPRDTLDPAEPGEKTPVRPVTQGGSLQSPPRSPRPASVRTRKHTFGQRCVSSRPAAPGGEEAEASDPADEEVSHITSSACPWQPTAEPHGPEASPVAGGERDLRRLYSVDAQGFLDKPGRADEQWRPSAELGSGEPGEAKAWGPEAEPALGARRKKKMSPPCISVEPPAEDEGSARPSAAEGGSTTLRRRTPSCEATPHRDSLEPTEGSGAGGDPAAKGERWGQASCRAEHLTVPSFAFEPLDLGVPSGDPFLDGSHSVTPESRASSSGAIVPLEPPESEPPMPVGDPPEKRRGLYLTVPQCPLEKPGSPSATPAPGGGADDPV
Assay [9] in a line: control 3'UTR Renilla luciferase suppression, dose response, counter-screen for Shn3 inhibitor project, cell-based, Clone20-Shn3RL, cherry-picked (AID 624133). Format: functional.
A short description of assay [10]: Shn3 3'UTR reporter inhibitors, dose response, cell-based, Clone20 osteoblasts, firefly luciferase, cherry-picked (AID 624132).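 Note: firefly luciferase luminescence from reporter carrying the Shn3 3'UTR in osteoblasts.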 In kind it is functional.
A further assay concerns the target Paired box protein Pax-8 (Homo sapiens, UniProt Q06710). Nature of the assay: inhibitors of PAX8-driven TPO luciferase reporter, dose response, RMG-I cells, cherry-pick (AID 687027).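 Note: luciferase reporter driven by Pax8 target thyroperoxidase promoter measured by SteadyGlo luminescence.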 In kind it is functional, cell-based.
The nature of assay [11]: HepG2 cell cytotoxicity, dose response, cytotoxicity control for Shn3 inhibitor project, CellTiter-Glo, cherry-picked (AID 624134). In kind it is functional, cell-based.
The nature of assay [12]: Luminescence Cell-Based Dose Retest to Confirm Inhibitors of Cancer Stem Cells. [Related pubchem assays (depositor defined):AID2717, AID2721]. Format: functional. As to conditions: Homo sapiens.

As to `O=C(c1cccc(Cl)c1)N(Cc1cccs1)C1CCS(=O)(=O)C1` (stereo not drawn), the IC50 at Protein skinhead-1 was > 100 µM (inactive). As to `CC(C)CCC(C(=O)NC(C)c1ccccc1)C(=O)NC(C)c1ccccc1` (stereo not drawn), the IC50 in assay [1] was 11.7 µM (active). Consider `O=[N+]([O-])c1cccc(S(=O)(=O)Nc2ccc(Cc3ccncc3)cc2)c1`, for which the half-inhibitory concentration (IC50) in assay [2] was 10.5 µM (active). As for `CCCCCOC(=O)c1ccc(N2C(=O)C3C4C=CC(C4)C3C2=O)cc1` (stereo not drawn), the IC50 was 2.43 µM (active) at Fatty acid synthase [3] and 2.93 µM (active) on Fatty acid synthase [4]. Turning to `COc1cc(/C=C2\SC(=S)N(Nc3ncc(C(F)(F)F)cc3Cl)C2=O)ccc1O`, the EC50 in assay [5] was 36 µM (active). The AC50 in [6] was 12.4 µM (active). Consider `O=C(Nc1ccc(S(=O)(=O)Nc2nccs2)cc1)c1ccc(O)nc1`, for which the IC50 in [1] was 7.11 µM (active). In the case of `O=C(Nc1cc([N+](=O)[O-])ccc1Cl)C(Sc1ccccc1)c1ccccc1` (stereo not drawn), the IC50 was 2.86 µM (active) at Fatty acid synthase [3] and 4.75 µM (active) on Fatty acid synthase [4].

Take `CN(CC(=O)Nc1ccc(Cl)c(C(F)(F)F)c1)C(=O)C1CC(=O)N(c2ccc3c(c2)OCCO3)C1` (stereo not drawn): the IC50 at Fatty acid synthase [3] was 11.3 µM (active); on Fatty acid synthase [4], 10.4 µM (active).

On to `CCN(CC)C(=S)Sc1c(-c2ccccc2)c2cc(Cl)ccc2[nH]c1=O`, for which the EC50 in assay [7] is > 53 µM (inactive). Further, the IC50 on Protein skinhead-1 is > 100 µM (inactive).

Turning to `CCOc1ccccc1NC(=O)C(CC(C)C)NC(=O)C1CCC(C)CC1` (stereo not drawn), at Protein skinhead-1, the IC50 was > 100 µM (inactive). As for `O=C(NCCc1ccccc1)c1ccc2c(=O)[nH]c3c(C(=O)NCC4CCCO4)sc(=S)n3c2c1` (stereo not drawn), in assay [2], the IC50 was 16.6 µM (active).

Take `O=C(CCNC(=O)c1ccccc1)NN=Cc1ccc(Br)o1`: the concentration for half-maximal inhibition (IC50) in assay [1] is 10.2 µM (active).

As for `CCC1Sc2ccccc2N(CC(=O)NCCC2=CCCCC2)C1=O` (stereo not drawn), in [8], the EC50 is 4.76 µM (active).

Turning to `CC(=O)c1cccc(-c2csc3ncnc(Sc4nnnn4C)c23)c1`, the AC50 in assay [9] was 15.5 µM (active); in [10], 4.72 µM (active); on Paired box protein Pax-8, 3.1 µM (active); in assay [11] it was 53.4 µM (active). Consider `COc1ccc(S(=O)(=O)NC2CC3CCC2C3)cc1Cl` (stereo not drawn), for which, in assay [6], the AC50 was 3.41 µM (active). Take `CCCn1c(NCc2c[nH]c3ccccc23)nc2ccccc21`: in assay [8], the EC50 is 5.89 µM (active). As to `Cc1[nH]c2ccccc2c1NC(=O)CN1CCN(c2cccc(C(F)(F)F)c2)CC1`, the EC50 in [8] is 4.61 µM (active).

On to `COc1ccc(NC(=O)C2CCCN2S(=O)(=O)c2ccc3c(c2)CCC(=O)N3)cc1` (stereo not drawn), for which, in assay [8], the EC50 was 9.23 µM (active). Take `O=C(NCc1ccco1)/C(=C\c1cccc([N+](=O)[O-])c1)NC(=O)c1ccco1`: the IC50 was 8.51 µM (active) on Fatty acid synthase [3] and 9.41 µM (active) at Fatty acid synthase [4]. Consider `CCN(CC)CCCCCCCCOC(=O)c1cc(OC)c(OC)c(OC)c1`, for which the IC50 in assay [2] is 15.1 µM (active).

For `O=C(/C=C/c1cccc([N+](=O)[O-])c1)NCCSc1ccccc1`, the IC50 on Fatty acid synthase [3] is 5.62 µM (active); on Fatty acid synthase [4], 4.58 µM (active). For `COc1ccc(-c2sc3ccccc3c2/C=C/c2ccncc2)cc1`, the AC50 in [6] is 3.9 µM (active); in assay [12], 4.57 µM (active). For the molecule `Cc1c(CN2CCCC(C(=O)Nc3cccc(-n4cccn4)c3)C2)cnn1C` (stereo not drawn), the IC50 on Protein skinhead-1 is > 100 µM (inactive).

With `CC1CCCN(C(=O)CSCC(=O)Nc2nc(-c3cccs3)cs2)C1` (stereo not drawn), the EC50 in [8] is 4.52 µM (active). For `O=C(NCc1ccc2c(c1)OCO2)C1CC(c2ccc(Cl)cc2)=NO1` (stereo not drawn), in assay [8], the EC50 is 0.496 µM (active). Take `Cc1nc(SCC(=O)NCc2ccc3c(c2)OCO3)c(C#N)c2c1CCCC2`: the EC50 in assay [8] is 5.41 µM (active).

Turning to `CCN(CC)P(=O)(c1n(CC)cc[n+]1CC)N(CC)CC`, the half-inhibitory concentration (IC50) in assay [1] is 3.98 µM (active). As to `O=C(OCc1ccc([N+](=O)[O-])cc1)C1CCN(S(=O)(=O)c2ccccc2)CC1`, the IC50 was 9.2 µM (active) at Fatty acid synthase [3] and 9.66 µM (active) on Fatty acid synthase [4].

On to `COc1ccc([C@H]2CC(=O)C=C(c3ccc(F)cc3OCc3ccccc3)C2)cc1OC`, for which the AC50 in assay [9] is 16.1 µM (active); in [10], 7.36 µM (active); in [11], > 70 µM (inactive).
